# Reference: patent US7244758B2, “N-type calcium channel blockers” (Neuromed Pharmaceuticals Ltd., priority 2003, dated 2007)
# Read-outs that look alike come from different tables or passages of the source.
# Experiments:
# [1] = molecular target: T1, human α1G T-type channels (Homo sapiens, UniProt O43497); experiment: Block of α1G T-type channels, whole-cell patch clamp in HEK cells; assay type: cell-based
# T1 construct: expressed in transfected cells
# Description: Standard patch-clamp techniques were employed to identify blockers of T-type currents. Briefly, previously described HEK cell lines stably expressing human α1G T-type channels were used for all the recordings (passage #: 4-20, 37° C., 5% CO2). To obtain T-type currents, plastic dishes containing semi-confluent cells were positioned on the stage of a ZEISS AXIOVERT S100 microscope after replacing the culture medium with external solution (see below). Whole-cell patches were obtained using pipettes (borosilicate glass with filament, O.D.: 1.5 mm, I.D.: 0.86 mm, 10 cm length), fabricated on a SUTTER P-97 puller with resistance values of ˜5 MΩ (see below for internal solution).
# In the non-inactivating protocol, the holding potential is set at −110 mV and with a pre-pulse at −100 mV for 1 second prior to the test pulse at −40 mV for 50 ms. […]
# Test compounds were dissolved in external solution, 0.1-0.01% DMSO. After ˜10 min rest, they were applied by gravity close to the cell using a WPI microfil tubing. The “non-inactivated” pre-pulse was used to examine the resting block of a compound. The “inactivated” protocol was employed to study voltage-dependent block. However, the initial data shown below were mainly obtained using the non-inactivated protocol only. IC50 values are shown for various compounds of the invention in Table 6.
# rat formalin model = experiment: Formalin-induced pain model (paw flinches); assay type: in vivo; settings: 30 mg/kg IP, 10 min before formalin, saline control=100%
# Description: The effects of intrathecally delivered compounds of the invention on the rat formalin model were measured. The compounds were reconstituted to stock solutions of approximately 10 mg/ml in propylene glycol. Eight Holtzman male rats of 275-375 g size were randomly selected per test article.
# The following study groups were used, with test article, vehicle control (propylene glycol) and saline delivered intraperitoneally (IP):
# Prior to initiation of drug delivery baseline behavioral and testing data were taken.
# On the morning of testing, a small metal band (0.5 g) was loosely placed around the right hind paw. The rat was placed in a cylindrical Plexiglas chamber for adaptation a minimum of 30 minutes. Test Article or Vehicle Control Article was administered 10 minutes prior to formalin injection (50 μl of 5% formalin) into the dorsal surface of the right hindpaw of the rat. The animal was then placed into the chamber of the automated formalin apparatus where movement of the formalin injected paw was monitored and the number of paw flinches tallied by minute over the next 60 minutes (Malmberg, A. B., et al., Anesthesiology (1993) 79:270-281).
# Results are presented as Maximum Possible Effect±SEM, where saline control=100%.
# [2] = molecular target: T2, rat brain N-type calcium channel subunits (α1B+α2δ+β1b) (Rattus norvegicus, UniProt Q02294); experiment: N-type calcium channel block, whole cell patch clamp in HEK 293 cells; assay type: cell-based; settings: holding −80 mV to +10 mV, 5 mM Ba
# T2 construct: expressed in transfected cells; host or cells: HEK 293
# Description: (§1) Antagonist activity was measured using whole cell patch recordings on human embryonic kidney cells either stably or transiently expressing rat α1B+α2δ+β1b channels (N-type channels) with 5 mM barium as a charge carrier. P/Q-type channels (α1A+α2δ+β1b cDNA subunits) and L-type channels (α1C+α2δ+β1b cDNA subunits) were also transiently expressed in HEK 293 cells.
# For transient expression, host cells, such as human embryonic kidney cells, HEK 293 (ATCC# CRL 1573) were grown in standard DMEM medium supplemented with 2 mM glutamine and 10% fetal bovine serum. HEK 293 cells were transfected by a standard calcium-phosphate-DNA coprecipitation method using the rat α1B+β1b+α2δ N-type calcium channel subunits in a vertebrate expression vector (for example, see Current Protocols in Molecular Biology).
# After an incubation period of from 24 to 72 hrs the culture medium was removed and replaced with external recording solution (see below). Whole cell patch clamp experiments were performed using an Axopatch 200B amplifier (Axon Instruments, Burlingame, Calif.) linked to an IBM compatible personal computer equipped with pCLAMP software. Borosilicate glass patch pipettes (Sutter Instrument Co., Novato, Calif.) were polished (Microforge, Narishige, Japan) to a resistance of about 4 MΩ when filled with cesium methanesulfonate internal solution (composition in MM: 109 CsCH3 SO4, 4 MgCl2, 9 EGTA, 9 HEPES, pH 7.2). Cells were bathed in 5 mM Ba^++ (in mM: 5 BaCl2, 1 MgCl2, 10 HEPES, 40 tetraethylammonium chloride, 10 glucose, 87.5 CsCl pH 7.2). […] Drugs were perfused directly into the vicinity of the cells using a microperfusion system.
# Normalized dose-response curves were fit (Sigmaplot 4.0, SPSS Inc., Chicago, Ill.) by the Hill equation to determine IC50 values. Steady-state inactivation curves were plotted as the normalized test pulse amplitude following 5 s inactivating prepulses at +10 mV increments. Inactivation curves were fit (Sigmaplot 4.0) with the Boltzman equation, Ipeak (normalized)=1/(1+exp((V−Vh)z/25.6)), where V and Vh are the conditioning and half inactivation potentials, respectively, and z is the slope factor.
# N-type calcium channel blocking activity was assayed in human embryonic kidney cells, HEK 293, stably transfected with the rat brain N-type calcium channel subunits (α1B+α2δ+β1b cDNA subunits). Alternatively, N-type calcium channels (α1B+α2δ+β1b cDNA subunits), L-type channels (α1C+α2δ+β1b cDNA subunits) and P/Q-type channels (α1A+α2δ+β1b cDNA subunits) were transiently expressed in HEK 293 cells. Briefly, cells were cultured in Dulbecco's modified eagle medium (DMEM) supplemented with 10% fetal bovine serum, 200 U/ml penicillin and 0.2 mg/ml streptomycin at 37° C. with 5% CO2. At 85% confluency cells were split with 0.25% trypsin/1 mM EDTA and plated at 10% confluency on glass coverslips. At 12 hours the medium was replaced and the cells transiently transfected using a standard calcium phosphate protocol and the appropriate calcium channel cDNA's. Fresh DMEM was supplied and the cells transferred to 28° C./5% CO2. Cells were incubated for 1 to 2 days to whole cell recording.
# Whole cell patch clamp experiments were performed using an Axopatch 200B amplifier (Axon Instruments, Burlingame, Calif.) linked to a personal computer equipped with pCLAMP software. The external and internal recording solutions contained, respectively, 5 mM BaCl2, […], 10 mM HEPES, 40 mM TEACl, 10 mM glucose, 87.5 mM CsCl (pH 7.2) and 108 mM CsMS, 4 mM MgCl2, 9 mM EGTA, 9 mM HEPES (pH 7.2). Currents were typically elicited from a holding potential of −80 mV to +10 mV using Clampex software (Axon Instruments).
# [3] = tested on: L-type channels (α1C+α2δ+β1b); experiment: Selectivity patch clamp, L-type channels transiently expressed in HEK 293 cells; assay type: cell-based; settings: N-type vs L-type
# Description: as §1
# (§2) After an incubation period of from 24 to 72 hrs the culture medium was removed and replaced with external recording solution (see below). Whole cell patch clamp experiments were performed using an Axopatch 200B amplifier (Axon Instruments, Burlingame, Calif.) linked to an IBM compatible personal computer equipped with pCLAMP software. Borosilicate glass patch pipettes (Sutter Instrument Co., Novato, Calif.) were polished (Microforge, Narishige, Japan) to a resistance of about 4 MΩ when filled with cesium methanesulfonate internal solution (composition in MM: 109 CsCH3 SO4, 4 MgCl2, 9 EGTA, 9 HEPES, pH 7.2). Cells were bathed in 5 mM Ba^++ (in mM: 5 BaCl2, 1 MgCl2, 10 HEPES, 40 tetraethylammonium chloride, 10 glucose, 87.5 CsCl pH 7.2). Current data shown were elicited by a train of 100 ms test pulses at 0.066 Hz from −100 mV and/or −80 mV to various potentials (min. −20 mV, max. +30 mV). Drugs were perfused directly into the vicinity of the cells using a microperfusion system. […]
# [4] = tested on: P/Q-type channels (α1A+α2δ+β1b); experiment: Selectivity patch clamp, P/Q-type channels transiently expressed in HEK 293 cells; assay type: cell-based; settings: N-type vs P/Q-type
# Description: as §1, §2
# [5] = inactivation protocol (voltage-dependent block), read-out: IC50 at −80 mV
# [6] = non-inactivating protocol, pre-pulse −100 mV (resting block), read-out: IC50 at −100 mV
# [7] = low frequency stimulation 0.067 Hz (tonic block), read-out: IC50 at 0.067 Hz
# [8] = pulse frequency 0.2 Hz (frequency dependent block), read-out: IC50 at 0.2 Hz
# T2 sequence (Q02294 whole entry): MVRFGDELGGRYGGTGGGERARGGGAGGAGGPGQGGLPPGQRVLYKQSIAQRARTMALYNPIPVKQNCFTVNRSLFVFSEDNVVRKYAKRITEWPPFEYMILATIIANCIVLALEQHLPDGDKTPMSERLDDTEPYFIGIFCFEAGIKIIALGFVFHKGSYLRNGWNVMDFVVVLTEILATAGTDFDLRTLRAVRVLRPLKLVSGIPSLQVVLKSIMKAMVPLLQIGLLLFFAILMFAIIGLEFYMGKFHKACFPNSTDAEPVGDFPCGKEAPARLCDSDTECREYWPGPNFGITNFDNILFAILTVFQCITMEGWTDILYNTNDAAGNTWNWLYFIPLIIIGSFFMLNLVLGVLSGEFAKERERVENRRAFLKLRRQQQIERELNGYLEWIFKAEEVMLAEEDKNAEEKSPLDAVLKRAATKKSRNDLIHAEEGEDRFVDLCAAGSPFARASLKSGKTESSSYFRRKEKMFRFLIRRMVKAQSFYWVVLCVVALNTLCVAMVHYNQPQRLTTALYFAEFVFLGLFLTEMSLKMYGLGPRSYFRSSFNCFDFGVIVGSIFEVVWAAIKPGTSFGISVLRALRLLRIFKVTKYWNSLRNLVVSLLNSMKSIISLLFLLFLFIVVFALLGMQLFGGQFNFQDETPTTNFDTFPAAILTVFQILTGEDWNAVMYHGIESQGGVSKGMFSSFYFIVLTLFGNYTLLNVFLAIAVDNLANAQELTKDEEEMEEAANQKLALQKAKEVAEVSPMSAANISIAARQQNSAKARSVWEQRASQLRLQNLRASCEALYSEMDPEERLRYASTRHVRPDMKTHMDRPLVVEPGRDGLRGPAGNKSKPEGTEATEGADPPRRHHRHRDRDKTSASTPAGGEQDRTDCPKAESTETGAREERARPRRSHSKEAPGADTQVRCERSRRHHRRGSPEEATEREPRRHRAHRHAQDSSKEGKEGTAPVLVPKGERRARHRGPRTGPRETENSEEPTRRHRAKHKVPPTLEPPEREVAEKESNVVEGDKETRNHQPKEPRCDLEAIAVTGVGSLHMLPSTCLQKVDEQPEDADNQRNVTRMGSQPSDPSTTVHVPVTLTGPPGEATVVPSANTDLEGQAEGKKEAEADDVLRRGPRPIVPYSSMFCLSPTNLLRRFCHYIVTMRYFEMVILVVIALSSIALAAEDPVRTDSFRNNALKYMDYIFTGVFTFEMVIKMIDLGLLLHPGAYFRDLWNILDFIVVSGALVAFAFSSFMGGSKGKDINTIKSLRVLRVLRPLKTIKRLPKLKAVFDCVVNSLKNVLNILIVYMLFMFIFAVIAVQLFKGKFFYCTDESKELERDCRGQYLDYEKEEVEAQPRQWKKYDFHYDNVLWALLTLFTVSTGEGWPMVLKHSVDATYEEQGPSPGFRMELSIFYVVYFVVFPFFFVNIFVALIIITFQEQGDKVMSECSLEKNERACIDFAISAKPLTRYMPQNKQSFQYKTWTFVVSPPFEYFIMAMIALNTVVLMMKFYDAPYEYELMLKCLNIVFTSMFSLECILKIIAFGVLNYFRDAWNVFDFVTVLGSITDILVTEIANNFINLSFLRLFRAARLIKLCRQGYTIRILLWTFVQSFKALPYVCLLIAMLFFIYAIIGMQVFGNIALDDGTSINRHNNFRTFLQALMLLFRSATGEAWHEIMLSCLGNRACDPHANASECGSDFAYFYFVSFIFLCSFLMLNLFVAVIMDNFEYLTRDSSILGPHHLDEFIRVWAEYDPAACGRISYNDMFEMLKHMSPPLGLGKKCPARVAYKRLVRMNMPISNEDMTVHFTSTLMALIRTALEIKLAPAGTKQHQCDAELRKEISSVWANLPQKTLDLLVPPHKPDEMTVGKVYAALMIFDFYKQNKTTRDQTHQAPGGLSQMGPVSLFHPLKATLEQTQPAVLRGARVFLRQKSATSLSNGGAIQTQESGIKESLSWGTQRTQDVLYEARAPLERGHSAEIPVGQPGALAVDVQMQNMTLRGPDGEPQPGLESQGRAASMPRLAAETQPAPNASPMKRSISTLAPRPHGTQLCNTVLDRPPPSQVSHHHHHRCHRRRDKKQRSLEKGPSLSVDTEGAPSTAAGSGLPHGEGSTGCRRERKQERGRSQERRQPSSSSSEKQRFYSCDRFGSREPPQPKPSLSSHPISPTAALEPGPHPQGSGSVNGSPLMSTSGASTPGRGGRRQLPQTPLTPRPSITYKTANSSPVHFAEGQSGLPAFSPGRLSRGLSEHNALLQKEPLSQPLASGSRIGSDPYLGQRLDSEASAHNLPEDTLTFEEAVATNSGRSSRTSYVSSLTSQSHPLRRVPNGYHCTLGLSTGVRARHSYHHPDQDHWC
# T1 sequence (O43497 whole entry): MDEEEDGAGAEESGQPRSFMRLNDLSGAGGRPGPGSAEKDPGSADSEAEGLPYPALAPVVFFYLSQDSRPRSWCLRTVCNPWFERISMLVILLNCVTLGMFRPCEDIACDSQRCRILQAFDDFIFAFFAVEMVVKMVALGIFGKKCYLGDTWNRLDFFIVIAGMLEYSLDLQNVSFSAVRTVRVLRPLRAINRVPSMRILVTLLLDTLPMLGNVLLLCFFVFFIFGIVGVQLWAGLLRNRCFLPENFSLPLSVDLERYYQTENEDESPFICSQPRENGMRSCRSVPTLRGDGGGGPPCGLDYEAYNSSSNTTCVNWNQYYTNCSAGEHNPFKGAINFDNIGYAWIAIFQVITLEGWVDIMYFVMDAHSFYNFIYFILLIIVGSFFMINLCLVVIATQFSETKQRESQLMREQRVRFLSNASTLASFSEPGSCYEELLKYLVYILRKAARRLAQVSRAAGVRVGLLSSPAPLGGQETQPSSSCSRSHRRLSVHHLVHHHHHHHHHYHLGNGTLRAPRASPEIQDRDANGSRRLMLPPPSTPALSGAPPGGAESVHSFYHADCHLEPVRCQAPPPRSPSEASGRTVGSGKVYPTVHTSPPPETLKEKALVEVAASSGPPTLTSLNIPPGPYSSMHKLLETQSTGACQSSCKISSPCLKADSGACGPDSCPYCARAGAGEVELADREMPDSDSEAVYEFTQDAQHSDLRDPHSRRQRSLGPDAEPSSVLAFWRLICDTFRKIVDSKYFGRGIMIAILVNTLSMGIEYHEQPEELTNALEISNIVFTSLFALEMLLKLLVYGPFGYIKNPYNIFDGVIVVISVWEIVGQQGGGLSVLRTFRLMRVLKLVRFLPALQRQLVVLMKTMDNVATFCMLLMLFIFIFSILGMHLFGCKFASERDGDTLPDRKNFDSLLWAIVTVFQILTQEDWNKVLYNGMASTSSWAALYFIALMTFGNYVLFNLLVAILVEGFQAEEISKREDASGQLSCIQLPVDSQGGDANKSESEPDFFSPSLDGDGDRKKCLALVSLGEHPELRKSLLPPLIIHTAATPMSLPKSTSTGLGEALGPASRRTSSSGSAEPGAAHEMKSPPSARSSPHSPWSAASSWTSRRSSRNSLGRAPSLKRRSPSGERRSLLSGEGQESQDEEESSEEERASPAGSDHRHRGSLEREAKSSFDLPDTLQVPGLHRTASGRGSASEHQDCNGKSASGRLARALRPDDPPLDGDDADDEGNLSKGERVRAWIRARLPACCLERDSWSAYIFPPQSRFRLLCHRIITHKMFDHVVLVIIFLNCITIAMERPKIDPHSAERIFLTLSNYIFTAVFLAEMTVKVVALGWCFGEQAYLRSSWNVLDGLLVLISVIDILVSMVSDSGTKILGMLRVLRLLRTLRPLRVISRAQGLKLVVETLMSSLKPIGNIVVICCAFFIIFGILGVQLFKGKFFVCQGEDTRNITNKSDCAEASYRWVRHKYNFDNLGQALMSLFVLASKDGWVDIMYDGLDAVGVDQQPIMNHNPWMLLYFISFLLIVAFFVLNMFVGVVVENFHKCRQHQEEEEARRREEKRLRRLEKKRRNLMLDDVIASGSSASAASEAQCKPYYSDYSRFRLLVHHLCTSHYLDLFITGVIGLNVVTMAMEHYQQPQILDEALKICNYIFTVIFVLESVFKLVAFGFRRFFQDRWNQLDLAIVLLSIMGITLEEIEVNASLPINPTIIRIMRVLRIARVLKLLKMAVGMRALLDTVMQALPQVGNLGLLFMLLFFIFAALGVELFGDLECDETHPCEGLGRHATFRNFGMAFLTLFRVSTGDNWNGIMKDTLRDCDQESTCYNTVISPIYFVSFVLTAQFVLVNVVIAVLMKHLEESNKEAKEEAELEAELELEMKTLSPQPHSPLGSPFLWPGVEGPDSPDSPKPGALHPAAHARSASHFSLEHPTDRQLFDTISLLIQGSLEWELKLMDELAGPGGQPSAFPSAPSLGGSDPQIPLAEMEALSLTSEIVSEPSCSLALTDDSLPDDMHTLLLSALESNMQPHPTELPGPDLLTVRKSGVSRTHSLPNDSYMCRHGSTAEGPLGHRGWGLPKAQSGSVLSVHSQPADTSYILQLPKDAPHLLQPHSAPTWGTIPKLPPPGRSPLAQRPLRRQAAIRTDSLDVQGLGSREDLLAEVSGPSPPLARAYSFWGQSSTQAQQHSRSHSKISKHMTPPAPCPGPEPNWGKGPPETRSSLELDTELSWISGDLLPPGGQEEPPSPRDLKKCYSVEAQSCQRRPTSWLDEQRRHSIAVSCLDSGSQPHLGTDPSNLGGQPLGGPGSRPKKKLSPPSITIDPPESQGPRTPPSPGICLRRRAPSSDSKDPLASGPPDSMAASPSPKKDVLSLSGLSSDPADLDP
"IC50 [1, 5]","IC50 [1, 6]","IC50 [2, 7]","IC50 [2, 8]",SMILES,"Maximum Possible Effect ± SEM, Phase I (rat formalin model)","Maximum Possible Effect ± SEM, Phase II (rat formalin model)","Maximum Possible Effect ± SEM, Phase IIA (rat formalin model)",selectivity for N-type over L-type channels [3],selectivity for N-type over P/Q-type channels [4]
0.7 nM,1.5 nM,,,COc1c(C(C)(C)C)cc(C(=O)NCC2CCN(C(=O)CCCCC(c3ccc(F)cc3)c3ccc(F)cc3)C2)cc1C(C)(C)C (centres unmarked) [Compound P13],85 ± 9%,86 ± 7%,86 ± 5%,,
3 nM,12 nM,179 nM,257 nM,O=C(CC(c1ccccc1)c1ccccc1)NCC1CCN(C(c2ccccc2)c2ccc(C(F)(F)F)cc2)C1 (centres unmarked) [Compound P39],,,,,
5 nM,23 nM,7 nM,1 nM,O=C(CN(CC(=O)N(c1ccccc1)c1ccccc1)CC1CCN(C(c2ccccc2)c2ccccc2)C1)N(c1ccccc1)c1ccccc1 (centres unmarked) [Compound P46],,,,,
,27 nM,10 nM,,COc1c(C(C)(C)C)cc(C(=O)N2CCC(CNC(=O)CCCCC(c3ccc(F)cc3)c3ccc(F)cc3)C2)cc1C(C)(C)C (centres unmarked) [Compound P11],,,,,
42 nM,137 nM,263 nM,236 nM,O=C(CC(c1ccccc1)c1ccccc1)NCC1CCN(C(c2ccccc2)c2ccc(Cl)cc2)C1 (centres unmarked) [Compound P26],,,,,
18 nM,57 nM,326 nM,226 nM,CN(CCN(c1ccccc1)c1ccccc1)CC1CCN(C(c2ccccc2)c2ccccc2)C1 (centres unmarked) [Compound P55],,,,,
55 nM,153 nM,279 nM,241 nM,CN(CC(=O)N(c1ccccc1)c1ccccc1)CC1CCN(C(c2ccccc2)c2ccccc2)C1 (centres unmarked) [Compound P54],,,,,
29 nM,52 nM,265 nM,119 nM,CC(C)(C)c1cc(C(=O)NCC2CCN(C(=O)CCCCC(c3ccc(F)cc3)c3ccc(F)cc3)C2)cc(C(C)(C)C)c1 (centres unmarked) [Compound P44],,,,,
8 nM,24 nM,295 nM,185 nM,O=C(NCC1CCN(C(c2ccccc2)c2ccccc2)C1)NC(c1ccccc1)c1ccccc1 (centres unmarked) [Compound P47],,,,,
,12 nM,380 nM,210 nM,O=C(NCC1CCN(C(=O)CCCCC(c2ccc(F)cc2)c2ccc(F)cc2)C1)c1cc(C(F)(F)F)cc(C(F)(F)F)c1 (centres unmarked) [Compound P24],66 ± 11%,38 ± 7%,20 ± 4%,,
,> 10000 nM,> 1000 nM,,O=C(NCC1CCN(C(=O)CCCCC(c2ccc(F)cc2)c2ccc(F)cc2)C1)c1cc(Br)c(O)c(Br)c1 (centres unmarked) [Compound P15],,,,,
,29 nM,60 nM,,CC(C)(C)c1cc(C(=O)NCC2CCN(C(=O)CCCCC(c3ccc(F)cc3)c3ccc(F)cc3)C2)cc(C(C)(C)C)c1 (centres unmarked) [Compound P17],74 ± 8%,84 ± 9%,79 ± 9%,greater than 75 fold,approximately 31 fold
